Values of other authors as cited in patent publication US20250090693A1, “BIOCOMPATIBLE COMPOSITION FOR LABELING TARGET LESION, AND PREPARATION METHOD THEREFOR” (NATIONAL CANCER CENTER, priority 2022, published 2025).

time after injection until decomposed and disappearing or excreted through urine and feces (injected into the human body): about an hour
SMILES: CC1(C)C(/C=C/C=C/C=C/C=C2\N(CCCCS(=O)(=O)O)c3ccc4ccccc4c3C2(C)C)=[N+](CCCCS(=O)(=O)[O-])c2ccc3ccccc3c21 [indocyanine green (ICG), indocyanine green]
clinical safety (18 breast cancer patients (T. Kitai, et al., Breast Cancer, 12:211-215, 2005)): safely used clinically
